Assay results taken from publication PMC11459966, “Oral pharmacokinetics and efficacy of oral phospholipid remdesivir nucleoside prodrugs against SARS-CoV-2 in mice” (Antimicrobial Agents and Chemotherapy, 2024).
Like-named read-outs stand apart in the source and are kept apart here.

Key:
[1] = Cell viability assay (CellTiter-Glo), Calu-3; details: human, Calu-3 cells
[2] = Cell viability assay (CellTiter-Glo), Huh7.5; details: human, Huh7.5 cells
[3] = tested on: SARS-CoV-2 isolate USA-WA1/2020; assay: microbe, parasite or virus in culture
[4] = tested on: SARS-CoV-2 isolate USA-WA1/2020; assay: microbe, parasite or virus in culture; format: cell-based; details: Severe acute respiratory syndrome coronavirus 2; Calu-3 cells, 44–48 hpi
[5] = Cell viability assay (CellTiter-Glo), Vero-TMPRSS2; format: cell-based, African green monkey; details: African green monkey, Vero-TMPRSS2 cells, 48 h incubation
Procedure: Cell viability assays (Table 1) were performed as previously described ([7]). Cells were cultured and seeded as per in vitro antiviral studies in opaque walled 96-well cell culture plates and incubated overnight for Huh7.5, A2T2-A549, and Vero-E6-TMPRSS2 cells and for 2 days for Calu-3 cells. Compounds or controls were added at the indicated concentrations in a total volume of 100 µL, and cells were incubated for 48 h. An equal volume of CellTiter-Glo reagent (Promega, Cat. #G7570) or CellTiter-Glo 2.0 reagent (Promega, Cat. #G9241) was added and mixed, and luminescence was recorded on a Veritas Microplate Luminometer (Turner BioSystems) or a Spark Multimode plate reader (Tecan) according to manufacturer instructions. Percent viability was normalized to DMSO controls, and CC50 values were derived from best fit curves calculated in Prism 10.

[6] = tested on: SARS-CoV-2 isolate USA-WA1/2020; assay: microbe, parasite or virus in culture; remark: listed apart in the source
[7] = tested on: SARS-CoV-2 isolate USA-WA1/2020; assay: microbe, parasite or virus in culture; remark: listed apart in the source
[8] = Cell viability assay (CellTiter-Glo), A2T2-A549; details: human, A2T2-A549 cells
[9] = tested on: SARS-CoV-2 isolate USA-WA1/2020; details: A2T2-A549
[10] = tested on: SARS-CoV-2 isolate USA-WA1/2020; details: Vero-TMPRSS2

**Q.** For N#C[C@@]1(c2ccc3c(N)ncnn23)O[C@H](CO)[C@@H](O)[C@H]1O [RVn, reference compound], which CC50 at 48 h [1] is on record?
**A.** The CC50 at 48 h was over 100 µM.

**Q.** And the CC50 at 48 h [2]?
**A.** Its CC50 at 48 h is over 100 µM.

**Q.** And the EC50 ([3]; Severe acute respiratory syndrome coronavirus 2, read-out: EC50 μM ± SD)?
**A.** The EC50 was 3.01 ± 0.038 µM.

**Q.** And the EC90 ([3]; Severe acute respiratory syndrome coronavirus 2, read-out: EC90 μM ± SD)?
**A.** Its EC90 is 4.49 ± 0.256 µM.

**Q.** What about the EC50 [4] of the same compound?
**A.** Its EC50 is 0.665 ± 0.284 µM.

**Q.** And the EC90 [4]?
**A.** The EC90 was 1.89 ± 0.497 µM.

**Q.** And the CC50 at 48 h [5]?
**A.** The CC50 at 48 h was over 100 µM.

**Q.** And the EC50 ([6]; Severe acute respiratory syndrome coronavirus 2, Huh7.5, read-out: EC50 μM ± SD)?
**A.** Its EC50 is 1.36 ± 0.544 µM.

**Q.** And the EC90 ([6]; Severe acute respiratory syndrome coronavirus 2, Huh7.5, read-out: EC90 μM ± SD)?
**A.** Its EC90 is 2.96 ± 0.866 µM.

**Q.** What about the EC50 ([7]; Severe acute respiratory syndrome coronavirus 2, Vero/TMPRSS2, read-out: EC50 μM ± SD) of the same compound?
**A.** The EC50 was 1.08 ± 0.264 µM.

**Q.** What about the EC90 ([7]; Severe acute respiratory syndrome coronavirus 2, Vero/TMPRSS2, read-out: EC90 μM ± SD) of the same compound?
**A.** The EC90 was 2.43 ± 0.692 µM.

**Q.** What about the CC50 at 48 h [8] of the same compound?
**A.** Its CC50 at 48 h is over 100 µM.

**Q.** And the “SI (CC50/EC50)” value [9]?
**A.** Its value is over 33.

**Q.** And the “SI (CC50/EC50)” value [10]?
**A.** Its value is over 92.
